Measurements taken from ChEMBL document CHEMBL5329202, “New aryl-/heteroarylpiperazine derivatives of 1,7-dimethyl-8,9-diphenyl-4-azatricyclo[5.2.1.02,6]dec-8-ene-3,5,10-trione: Synthesis and preliminary studies of biological activities” (Bioorg Med Chem, 2023).
Active and inactive are the calls of the source. No cut-off for these calls is given here.

Columns and labels:
MDA-MB-231 = test: Cytotoxicity against human MDA-MB-231 cells assessed as cell growth inhibition measured after 72 hrs by MTT assay; format: functional, cell-based; settings: MDA-MB-231, 72 h
SW480 = test: Cytotoxicity against human SW480 cells assessed as cell growth inhibition measured after 72 hrs by MTT assay; format: functional, cell-based; settings: SW480, 72 h
HCT-116 [1] = test: Induction of apoptosis in human HCT-116 cells assessed as necrotic cells at IC50 incubated for 72 hrs by Annexin V-FITC/PI staining based flow cytometric analysis (reference value: 0.1 %); format: functional
HMEC-1 [2] = test: Induction of apoptosis in human HMEC-1 cells assessed as viable cells at IC50 incubated for 72 hrs by Annexin V-FITC/PI staining based flow cytometric analysis (reference value: 90.6 %); format: functional
[3] = molecular target: T1, 5-hydroxytryptamine receptor 1A (Rattus norvegicus) (UniProt P19327); test: Agonist activity at Sprague-Dawley rat hippocampal membrane 5-HT1A receptor assessed as stimulation of [35S]GTPgammaS binding by measuring maximal efficacy measured after 90 mins by scintillation counter analysis relative to control; format: functional, cell membranes; settings: Hippocampus, filed as agonist
T1 sequence (whole entry): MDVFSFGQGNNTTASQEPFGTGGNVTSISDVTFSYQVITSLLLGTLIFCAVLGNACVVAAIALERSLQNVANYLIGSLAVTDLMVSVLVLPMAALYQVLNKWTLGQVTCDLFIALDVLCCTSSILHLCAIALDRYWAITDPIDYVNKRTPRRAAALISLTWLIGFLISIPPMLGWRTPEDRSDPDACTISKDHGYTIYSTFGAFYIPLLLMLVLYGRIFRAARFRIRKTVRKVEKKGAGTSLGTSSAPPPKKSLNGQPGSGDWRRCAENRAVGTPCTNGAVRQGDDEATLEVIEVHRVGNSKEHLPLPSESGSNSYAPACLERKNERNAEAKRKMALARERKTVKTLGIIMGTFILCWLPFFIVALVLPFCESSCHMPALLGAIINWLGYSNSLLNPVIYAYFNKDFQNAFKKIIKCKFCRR

HepG2 = test: Cytotoxicity against human HepG2 cells assessed as cell growth inhibition measured after 72 hrs by MTT assay; format: functional, cell-based; settings: HepG2, 72 h
[4] = Selectivity index, ratio of IC50 for cytotoxicity against human HMEC-1 cells to IC50 for cytotoxicity against human MDA-MB-231 cells; format: toxicity, cell-based; settings: HMEC-1 cells and MDA-MB-231 cells, read-out: Ratio IC50
K562 [5] = test: Induction of apoptosis in human K562 cells assessed as early apoptotic cells at IC50 incubated for 72 hrs by Annexin V-FITC/PI staining based flow cytometric analysis (reference value: 1.3 %); format: functional
HMEC-1 [6] = test: Induction of apoptosis in human HMEC-1 cells assessed as necrotic cells at IC50 incubated for 72 hrs by Annexin V-FITC/PI staining based flow cytometric analysis (reference value: 2.4 %); format: functional
A549 = test: Cytotoxicity against human A549 cells assessed as cell growth inhibition measured after 72 hrs by MTT assay; format: functional, cell-based; settings: A549, 72 h
[7] = Selectivity index, ratio of IC50 for cytotoxicity against human HMEC-1 cells to IC50 for cytotoxicity against human HepG2 cells; format: toxicity, cell-based; settings: HMEC-1 cells and HepG2 cells, read-out: Ratio IC50
K562 [8] = test: Induction of apoptosis in human K562 cells assessed as late apoptotic cells at IC50 incubated for 72 hrs by Annexin V-FITC/PI staining based flow cytometric analysis (reference value: […]); format: functional
[9] = Selectivity index, ratio of IC50 for cytotoxicity against human HMEC-1 cells to IC50 for cytotoxicity against human PC-3 cells; format: toxicity, cell-based; settings: HMEC-1 cells and PC-3 cells, read-out: Ratio IC50
Rattus norvegicus = species on record: Rattus norvegicus; test: Displacement of [3H]-QNB from Sprague-Dawley rat Muscarinic acetylcholine receptor assessed as inhibition constant measured after 45 mins by competitive binding assay
HMEC-1 [10] = test: Induction of apoptosis in human HMEC-1 cells assessed as early apoptotic cells at IC50 incubated for 72 hrs by Annexin V-FITC/PI staining based flow cytometric analysis (reference value: 2.4 %); format: functional
[11] = Cytotoxicity against human HMEC-1 cells assessed as cell growth inhibition measured after 72 hrs by MTT assay; format: toxicity, cell-based
K562 [12] = test: Induction of apoptosis in human K562 cells assessed as necrotic cells at IC50 incubated for 72 hrs by Annexin V-FITC/PI staining based flow cytometric analysis (reference value: 7.1 %); format: functional
K562 [13] = test: Induction of apoptosis in human K562 cells assessed as viable cells at IC50 incubated for 72 hrs by Annexin V-FITC/PI staining based flow cytometric analysis (reference value: 89 %); format: functional
HCT-116 [14] = test: Induction of apoptosis in human HCT-116 cells assessed as late apoptotic cells at IC50 incubated for 72 hrs by Annexin V-FITC/PI staining based flow cytometric analysis (reference value: 1.6 %); format: functional
HCT-116 [15] = test: Cytotoxicity against human HCT-116 cells assessed as cell growth inhibition measured after 72 hrs by MTT assay; format: functional, cell-based; settings: HCT-116, 72 h
K562 [16] = test: Antiproliferative activity against human K562 cells assessed as reduction in cell viability at IC50 measured after 72 hrs by trypan blue dye based assay relative to control; format: functional
HCT-116 [17] = test: Antiproliferative activity against human HCT-116 cells assessed as reduction in cell viability at IC50 measured after 72 hrs by trypan blue dye based assay relative to control; format: functional
[18] = Selectivity index, ratio of IC50 for cytotoxicity against human HMEC-1 cells to IC50 for cytotoxicity against human SW480 cells
[19] = molecular target: T2, 5-hydroxytryptamine receptor 1A (Rattus norvegicus, UniProt P19327); test: Agonist activity at Sprague-Dawley rat hippocampal membrane 5-HT1A receptor assessed as stimulation of [35S]GTPgammaS binding measured after 90 mins by scintillation counter analysis; format: functional, cell membranes, Hippocampus
T2 sequence (P19327 whole entry): T1 sequence (whole entry)

K562 [20] = test: Cytotoxicity against human K562 cells assessed as cell growth inhibition measured after 72 hrs by MTT assay; format: functional, cell-based; settings: K562, 72 h
HMEC-1 [21] = test: Induction of apoptosis in human HMEC-1 cells assessed as late apoptotic cells at IC50 incubated for 72 hrs by Annexin V-FITC/PI staining based flow cytometric analysis (reference value: 4.7 %); format: functional
SW-620 = test: Cytotoxicity against human SW620 cells assessed as cell growth inhibition measured after 72 hrs by MTT assay; format: functional, cell-based; settings: SW-620, 72 h
HCT-116 [22] = test: Antiproliferative activity against human HCT-116 cells assessed as reduction in cell number at IC50 measured after 72 hrs by trypan blue dye based assay relative to control; format: functional; design: scale not given: the % may be the effect or the level left
[23] = Selectivity index, ratio of IC50 for cytotoxicity against human HMEC-1 cells to IC50 for cytotoxicity against human K562 cells; format: toxicity, cell-based; settings: HMEC-1 cells and K562 cells, read-out: Ratio IC50
HCT-116 [24] = test: Induction of apoptosis in human HCT-116 cells assessed as early apoptotic cells at IC50 incubated for 72 hrs by Annexin V-FITC/PI staining based flow cytometric analysis (reference value: 7.8 %); format: functional
HCT-116 [25] = test: Induction of apoptosis in human HCT-116 cells assessed as viable cells at IC50 incubated for 72 hrs by Annexin V-FITC/PI staining based flow cytometric analysis (reference value: 90.5 %); format: functional

SMILES	IC50 (MDA-MB-231)	IC50 (SW480)	Activity (HCT-116 [1])	Activity (HMEC-1 [2])	Emax [3]	IC50 (HepG2)	selectivity ratio [4]	Activity (K562 [5])	Activity (HMEC-1 [6])	IC50 (A549)	selectivity ratio [7]	Activity (K562 [8])	selectivity ratio [9]	Activity (Rattus norvegicus)	Activity (HMEC-1 [10])	IC50 at 72 h [11]	Activity (K562 [12])	Activity (K562 [13])	Activity (HCT-116 [14])	IC50 (HCT-116 [15])	also measured
CC12C(=O)C(C)(C(c3ccccc3)=C1c1ccccc1)C1C(=O)N(CCCCN3CCN(c4cccc(Cl)c4)CC3)C(=O)C12 (centres undefined)	40.6 µM	8.3 µM	0.3%	86.8%	162%	14.1 µM	0.54	5.2%	2%	25.6 µM	1.55	25.4%	2.55	inactive	3.5%	21.9 µM	9.9%	59.5%	2.5%	6.19 µM	Activity (K562 [16]): 30%; Activity (HCT-116 [17]): 16%; Ratio IC50 [18]: 2.64; EC50 [19]: 0.6 µM; IC50 (K562 [20]): 4.38 µM; Activity (HMEC-1 [21]): 7.8%; IC50 (SW-620): 15.9 µM; Activity (HCT-116 [22]): 26%; selectivity ratio [23]: 5.01; Activity (HCT-116 [24]): 15.7%; Activity (HCT-116 [25]): 81.5%
CC12C(=O)C(C)(C(c3ccccc3)=C1c1ccccc1)C1C(=O)N(CCCCN3CCN(c4ccccn4)CC3)C(=O)C12 (centres undefined)	15.2 µM	12.1 µM	0.4%	95.5%	168%	14.6 µM	2.41	6.3%	1.6%	16.1 µM	2.51	43.8%	1.73	inactive	1.4%	36.6 µM	13.7%	36.1%	2.1%	8.38 µM	Activity (K562 [16]): 37%; Activity (HCT-116 [17]): 17%; Ratio IC50 [18]: 3.02; EC50 [19]: 0.7 µM; IC50 (K562 [20]): 8.86 µM; Activity (HMEC-1 [21]): 1.4%; IC50 (SW-620): 16 µM; Activity (HCT-116 [22]): 28%; selectivity ratio [23]: 4.13; Activity (HCT-116 [24]): 12.1%; Activity (HCT-116 [25]): 85.5%
CC12C(=O)C(C)(C(c3ccccc3)=C1c1ccccc1)C1C(=O)N(CCCCN3CCN(c4ncccn4)CC3)C(=O)C12 (centres undefined)	18.7 µM	15.8 µM	0.3%	91.7%	134%	16.7 µM	1.64	4%	1.3%	18.1 µM	1.83	11.7%	1.49	inactive	4.6%	30.5 µM	7%	77.3%	4.1%	4.63 µM	Activity (K562 [16]): 28%; Activity (HCT-116 [17]): 36%; Ratio IC50 [18]: 1.93; EC50 [19]: 1.5 µM; IC50 (K562 [20]): 8.08 µM; Activity (HMEC-1 [21]): 2.4%; IC50 (SW-620): 13.5 µM; Activity (HCT-116 [22]): 49%; selectivity ratio [23]: 3.78; Activity (HCT-116 [24]): 58.2%; Activity (HCT-116 [25]): 37.4%
CC12C(=O)C(C)(C(c3ccccc3)=C1c1ccccc1)C1C(=O)N(CCCCN3CCN(c4ccccc4Cl)CC3)C(=O)C12 (centres undefined)	24.3 µM	5.29 µM	0.6%	86.7%	145%	12.9 µM	0.85	5.2%	5.1%	25 µM	1.6	19.4%	2.63	inactive	3.5%	20.6 µM	8.4%	67%	5%	3.58 µM	Activity (K562 [16]): 30%; Activity (HCT-116 [17]): 30%; Ratio IC50 [18]: 3.9; EC50 [19]: 0.1 µM; IC50 (K562 [20]): 4.01 µM; Activity (HMEC-1 [21]): 4.7%; IC50 (SW-620): 6.2 µM; Activity (HCT-116 [22]): 29%; selectivity ratio [23]: 5.15; Activity (HCT-116 [24]): 36.4%; Activity (HCT-116 [25]): 58%
